Experimental data from patent US20080031957A1, “Pulmonary delivery of 1alpha,25-dihydroxyvitamin D3 and co-administration of parathyroid hormone or calcitonin” (priority 2006, published 2008).

Columns and labels:
[1] = Tissue distribution of 1α,25-dihydroxyvitamin D3 after intratracheal (pulmonary) delivery; assay type: in vivo, Sprague Dawley rats
Text: Sprague Dawley and Brown Norway male rats aged 6-7 weeks were obtained from Harlan Sprague-Dawley (Madison, Wis.) and housed in shoebox cages. Animals were provided a purified rodent diet prepared in-house containing 0.47% calcium and 0.3% phosphorus, and water ad libitum. The diet was supplemented with 1.6 IU vitamin D3/g diet. […] Formulation A was an aqueous solution containing 30% propylene glycol and 5% ethanol at pH 7.0. Formulation B was also an aqueous solution further containing 0.4% TWEEN polysorbate 20 [1 mL of solution contains: 4 mg Tween Polysorbate 20, 1.5 mg sodium chloride, 10 mg sodium ascorbate, 7.6 mg sodium phosphate (dibasic), 1.8 mg sodium phosphate (monodibasic) and 1.1 mg disodium […]], pH 7.0. Intratracheal delivery of 1α,25-dihydroxyvitamin D3. 5 μCi of 1α,25-dihydroxyvitamin D3 was delivered intratracheally to anesthetized (isoflurane) Sprague Dawley rats by using the MicroSprayerTM Model 1C following the manufacturer's protocol (PennCentury, Philadelphia, Pa). The device included a stainless steel tube measuring 0.64 mm in diameter attached to a high-pressure syringe (Model FMJ-250, PennCentury). An atomizer at the very tip of the tube generated the aerosol plume. The MicroSprayerTM was inserted deep into the trachea allowing delivery of aerosolized compounds into the lungs. 1α,25-dihydroxyvitamin D3 was administered in either 100 μL (Formulation A and Formulation B) or 200 μL (Formulation A) dose volumes. As a quench control, a group of animals were dosed with either Formulation A or Formulation B. Tissue analysis. Using a duration of 4 hours and a duration of 10 minutes after administering the dose, the animals were anesthetized with isoflurane and blood was collected from the heart. The trachea, lungs and stomach were removed, dehydrated in alcohol and pulverized. Samples weighing 20-100 mg were placed in 1 mL Solvable (Packard BioScience B. V., The Netherlands) and incubated at 60° C. overnight. Next, 10 mL of Optima Gold (Perkin Elmer, Boston, Mass.) was added to the samples, and radioactivity was measured using a liquid scintillation analyzer (TRI-CARB 2100 TR, Packard). To determine the presence of 1α,25-dihydroxyvitamin D3 in the blood, 200-300 μL of serum in 10 mL Optima Gold was used for scintillation counting.

[2] = tested on: serum calcium levels; assay: Effect of aerosolized 1α,25-dihydroxyvitamin D3 on serum calcium levels; assay type: in vivo, Brown Norway rats; conditions: Formulation A, intratracheal 200 μL doses on Day 0 and Day 2, blood 24 h after last dose
Text: Sprague Dawley and Brown Norway male rats aged 6-7 weeks were obtained from Harlan Sprague-Dawley (Madison, Wis.) and housed in shoebox cages. Animals were provided a purified rodent diet prepared in-house containing 0.47% calcium and 0.3% phosphorus, and water ad libitum. The diet was supplemented with 1.6 IU vitamin D3/g diet. […] Formulation A was an aqueous solution containing 30% propylene glycol and 5% ethanol at pH 7.0. Formulation B was also an aqueous solution further containing 0.4% TWEEN polysorbate 20 [1 mL of solution contains: 4 mg Tween Polysorbate 20, 1.5 mg sodium chloride, 10 mg sodium ascorbate, 7.6 mg sodium phosphate (dibasic), 1.8 mg sodium phosphate (monodibasic) and 1.1 mg disodium […]], pH 7.0. Effectiveness of Aerosol Delivery of Vitamin D to Pulmonary Tree. 1α,25-dihydroxyvitamin D3 effect on serum calcium levels in Brown Norway rats was determined. Delivery of 1α,25-dihydroxyvitamin D3 (i.e., in vivo activity) was measured to determine the effect of aerosolized 1α,25-dihydroxyvitamin D3 treatment on serum calcium levels. Formulation A containing 1α,25-dihydroxyvitamin D3 was intra-tracheally delivered in 200 μL doses on Day 0 (Day 0 was the first day of treatment) and Day 2. […] Calcium levels were determined by atomic absorption spectroscopy of the serum diluted 0.1% lanthum chloride using a Perkin Elmer Model 3110.

[3] = Formulation A, 100 μL dose, after 10 minutes
[4] = Formulation B, 100 μL dose, after 10 minutes

detected 1α,25-dihydroxyvitamin D3 found in the serum [1, 3]: 53% | detected 1α,25-dihydroxyvitamin D3 found in the stomach [1, 3]: ~1% | detected 1α,25-dihydroxyvitamin D3 found in the trachea and lungs [1, 3]: 46% | detected 1α,25-dihydroxyvitamin D3 found in the serum ([1]; Formulation A, after 4 hours): 60% | detected 1α,25-dihydroxyvitamin D3 found in the stomach ([1]; Formulation A, after 4 hours): 36% | detected 1α,25-dihydroxyvitamin D3 found in the trachea and lungs ([1]; Formulation A, after 4 hours): Less than 5% | detected 1α,25-dihydroxyvitamin D3 found in the serum [1, 4]: 51% | detected 1α,25-dihydroxyvitamin D3 found in the stomach [1, 4]: less than 4% | detected 1α,25-dihydroxyvitamin D3 found in the trachea and lungs [1, 4]: 33% | 1α,25-dihydroxyvitamin D3 detected in serum (% of total) ([1]; Formulation B, after 4 hours): 56% | 1α,25-dihydroxyvitamin D3 detected in stomach (% of total) ([1]; Formulation B, after 4 hours): 35%
Structure (SMILES): C=C1/C(=C\C=C2/CCC[C@]3(C)[C@@H]([C@H](C)CCCC(C)(C)O)CC[C@@H]23)C[C@@H](O)C[C@@H]1O [1α,25-dihydroxyvitamin D3]
increase of serum calcium levels ([2]; 1 μg/kgBW): 2.8 mg/dL | increase of serum calcium levels ([2]; 10 μg/kgBW): 4 mg/dL
